These results are taken from ChEMBL document CHEMBL1201862, “PubChem BioAssay data set” (2004).

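Tested at 5 concentrations; 48 h exposure; 96-well plates; endpoints linearly interpolated, else capped at highest concentration. GI50: concentration for 50% inhibition of growth.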 The source made the active and inactive calls. Rule as the data show it: active = GI50 up to about 1.1 µM and inactive = higher. Square brackets hold non-standard residues; d marks the D form. Peptide text beside a SMILES is read from it. * marks the point of attachment. Phe(4-NO2) = N[CH](Cc1ccc([N+](=O)[O-])cc1)C(=O)O; Boc = CC(C)(C)OC(=O)*

Test systems include OVCAR-5; M14; NCI-H226; HT-29; A498; UACC-257; OVCAR-8; SNB-75; SF-295; T47D; MDA-MB-435; NCI-H460; HCT-15; HCT-116; UACC-62; SK-OV-3; NCI-H23; MCF7; HOP-62.
What all share (assay): inhibition of tumour cell growth, NCI panel, 48 h

In the case of `COc1cccc2c1C(=O)C(=O)c1c-2oc(=O)c2cc(C)cc(OC)c12`, the GI50 with OVCAR-5 is > 75 µM (inactive); in the assay with M14, 25.3 µM (inactive); in the assay on NCI-H226 it was 72.8 µM (inactive); in the assay on HT-29, 22.6 µM (inactive); with A498, > 75 µM (inactive); in the assay on UACC-257, 14.9 µM (inactive). Besides, the GI50 in the assay with OVCAR-8 is 14.9 µM (inactive); in the assay with SNB-75, 22.6 µM (inactive); in the assay on SF-295 it was 45.3 µM (inactive); with T47D, 29.9 µM (inactive); in the assay on MDA-MB-435, 14.2 µM (inactive); with NCI-H460, > 75 µM (inactive). Further, the GI50 with HCT-15 is 13.4 µM; in the assay on HCT-116 it was 27.4 µM (inactive); in the assay on UACC-62, 31 µM (inactive); in the assay on SK-OV-3, 58.5 µM (inactive); with NCI-H23 it was 19.3 µM (inactive); in the assay with MCF7 it was 23.7 µM (inactive). Moreover, the GI50 in the assay with HOP-62 was 15.9 µM (inactive).
Regarding `c1ccc(-c2nnc(SCc3c[nH]c4ccccc34)n2-c2ccccc2)cc1`, the GI50 in the assay on OVCAR-5 is > 100 µM (inactive); in the assay on M14 it was 78.9 µM (inactive); in the assay on NCI-H226 it was 22.7 µM (inactive); in the assay with HT-29, 8 µM (inactive); with A498 it was 19.3 µM (inactive); in the assay on UACC-257, 23.8 µM (inactive). For the same compound, the GI50 is 30.7 µM (inactive) with OVCAR-8; 18.7 µM (inactive) in the assay on SNB-75; 19.6 µM (inactive) in the assay with SF-295; 20 µM (inactive) in the assay on T47D; 34.6 µM (inactive) in the assay with MDA-MB-435; 12.1 µM (inactive) in the assay with NCI-H460. The GI50 with HCT-15 was 45 µM; in the assay with HCT-116 it was 35.6 µM (inactive); with UACC-62, 21.5 µM (inactive); in the assay with SK-OV-3, 32.4 µM (inactive); in the assay with NCI-H23, 41.4 µM (inactive); in the assay with MCF7, 42.3 µM (inactive). The GI50 in the assay with HOP-62 was 19 µM (inactive).
On to `Nc1nc(Cl)cc(NCC2(CO)CCC(O)C2)n1` (stereo not given), for which the GI50 in the assay with OVCAR-5, in the assay with M14, in the assay on NCI-H226, in the assay on HT-29, in the assay on A498 and in the assay with UACC-257 was > 100 µM (inactive) throughout. In addition, the GI50 with OVCAR-8, with SNB-75, with SF-295, in the assay with T47D, in the assay on MDA-MB-435 and in the assay on NCI-H460 was > 100 µM (inactive) throughout. In addition, the GI50 in the assay on HCT-15 was > 100 µM; with HCT-116, > 100 µM (inactive); in the assay with UACC-62 it was > 100 µM (inactive); in the assay on SK-OV-3, > 100 µM (inactive); in the assay on NCI-H23, > 100 µM (inactive); in the assay on MCF7, > 100 µM (inactive). In addition, in the assay with HOP-62, the GI50 was > 100 µM (inactive).
`Cc1cccc(/N=N/c2c(C)nn(C(=O)CC(=O)Nc3ccccc3)c2C)c1`: the GI50 in the assay on OVCAR-5 was > 100 µM (inactive); with M14 it was > 100 µM (inactive); in the assay on NCI-H226, > 100 µM (inactive); with HT-29, > 100 µM (inactive); with A498, > 100 µM (inactive); with UACC-257 it was > 10 µM (inactive). For the same compound, the GI50 in the assay with OVCAR-8, with SNB-75, in the assay on SF-295, in the assay with T47D, in the assay on MDA-MB-435 and in the assay on NCI-H460 was > 100 µM (inactive) throughout. Besides, the GI50 in the assay with HCT-15 is > 100 µM; in the assay with HCT-116 it was > 100 µM (inactive); in the assay with UACC-62, > 100 µM (inactive); with SK-OV-3, > 100 µM (inactive); in the assay on NCI-H23, > 100 µM (inactive); in the assay with MCF7 it was > 100 µM (inactive). The GI50 in the assay with HOP-62 is > 100 µM (inactive).
Regarding `CO[C@]12C#CC=CC#C[C@@H](O)[C@]3(CCC1)O[C@@]23c1cccc(O)c1`, the GI50 in the assay on OVCAR-5, with M14, in the assay on NCI-H226, in the assay on A498, in the assay with UACC-257 and in the assay on OVCAR-8 was > 100 µM (inactive) throughout. Besides, the GI50 was > 100 µM (inactive) in the assay on SNB-75; > 100 µM (inactive) in the assay on SF-295; > 100 µM (inactive) in the assay on T47D; > 100 µM (inactive) in the assay with MDA-MB-435; > 100 µM (inactive) in the assay with NCI-H460; > 100 µM in the assay with HCT-15. Besides, the GI50 in the assay with HCT-116 was > 100 µM (inactive); with UACC-62, 52.6 µM (inactive); in the assay on SK-OV-3, > 100 µM (inactive); in the assay with NCI-H23, > 100 µM (inactive); in the assay on MCF7 it was > 100 µM (inactive); with HOP-62, 79.3 µM (inactive).
`Nc1ccccc1C(=O)CCc1c[nH]c2ccccc12`: the GI50 in the assay with OVCAR-5, in the assay on M14, in the assay on NCI-H226, in the assay on HT-29, in the assay on A498 and in the assay with UACC-257 was > 100 µM (inactive) throughout. Also, the GI50 was > 100 µM (inactive) with OVCAR-8; 29.4 µM (inactive) in the assay on SNB-75; 19.4 µM (inactive) in the assay with SF-295; 5.53 µM (inactive) in the assay with T47D; > 100 µM (inactive) in the assay on MDA-MB-435; > 100 µM (inactive) in the assay with NCI-H460. Moreover, the GI50 with HCT-15 was 93.3 µM; in the assay with HCT-116 it was > 100 µM (inactive); with UACC-62, 25.1 µM (inactive); in the assay on SK-OV-3 it was 27 µM (inactive); in the assay with MCF7 it was > 100 µM (inactive); in the assay on HOP-62 it was 32.2 µM (inactive).
On to `COc1cccc2c1C(=O)c1c(O)c3c(c(O)c1C2=O)CC(O)(C(O)CO)CC3OC1CC2C(OC3COCC(C#N)N32)C(C)O1` (stereo not given), for which the GI50 in the assay on OVCAR-5, with M14, in the assay on NCI-H226, in the assay with HT-29, in the assay on A498 and with UACC-257 was < 0.01 µM (active) in each case. The GI50 with OVCAR-8, in the assay with SNB-75, in the assay on SF-295, in the assay with T47D, in the assay on MDA-MB-435 and in the assay with NCI-H460 was < 0.01 µM (active) each time. Also, the GI50 in the assay with HCT-15 is < 0.01 µM; in the assay with HCT-116 it was < 0.01 µM (active); with UACC-62 it was < 0.01 µM (active); in the assay on SK-OV-3 it was < 0.01 µM (active); in the assay with NCI-H23 it was < 0.01 µM (active); with MCF7, < 0.01 µM (active). Also, in the assay with HOP-62, the GI50 is < 0.01 µM (active).
For the compound `CCOC(=O)C(=CNC(=S)N/N=C1\C(=O)Nc2ccccc21)C(=O)OCC`, the GI50 in the assay on OVCAR-5 is > 100 µM (inactive); in the assay with M14 it was > 100 µM (inactive); in the assay on NCI-H226 it was > 100 µM (inactive); with HT-29, 84.3 µM (inactive); with A498, 41.9 µM (inactive); in the assay on UACC-257, > 100 µM (inactive). In addition, the GI50 was 89.9 µM (inactive) in the assay on OVCAR-8; 21.5 µM (inactive) in the assay on SNB-75; > 100 µM (inactive) in the assay on SF-295; > 100 µM (inactive) with T47D; > 100 µM (inactive) with MDA-MB-435; 47.8 µM (inactive) in the assay with NCI-H460. Besides, the GI50 in the assay on HCT-116 is > 100 µM (inactive); in the assay on UACC-62, > 100 µM (inactive); in the assay on SK-OV-3, > 100 µM (inactive); in the assay on NCI-H23 it was > 100 µM (inactive); in the assay with MCF7, 92.9 µM (inactive); in the assay with HOP-62, > 100 µM (inactive).
For `NC(=O)NC(=O)c1cccc(NC(=O)CI)c1`, the GI50 in the assay with OVCAR-5 is 0.151 µM (active); in the assay with NCI-H226, < 0.0367 µM (active); in the assay with HT-29, < 0.0178 µM (active); with A498 it was 0.231 µM (active); with UACC-257, < 0.0252 µM (active); in the assay on OVCAR-8 it was < 0.0123 µM (active). The GI50 with SNB-75 was 0.235 µM (active); in the assay on SF-295 it was 0.274 µM (active); in the assay on T47D, 1.66 µM (inactive); in the assay with MDA-MB-435 it was < 0.01 µM (active); in the assay on NCI-H460, 0.0485 µM (active); in the assay on HCT-15 it was < 0.0159 µM. Moreover, the GI50 in the assay with HCT-116 is < 0.01 µM (active); in the assay on UACC-62, < 0.0152 µM (active); with SK-OV-3 it was 0.0607 µM (active); in the assay on NCI-H23 it was < 0.0212 µM (active); in the assay with MCF7 it was < 0.01 µM (active); in the assay on HOP-62, 0.103 µM (active).
Turning to `CNC(=O)CCC(NC(=O)OC(C)(C)C)C(=O)NC(Cc1ccc([N+](=O)[O-])cc1)C(=O)NCC(=O)NC` (stereo not given) (Boc-Glu(NHMe)-[Phe(4-NO2)]-Gly-NHMe; configuration not given here), the GI50 in the assay on OVCAR-5 was > 100 µM (inactive); in the assay on M14, > 100 µM (inactive); with NCI-H226, > 100 µM (inactive); in the assay on HT-29, > 100 µM (inactive); in the assay on A498 it was 68.2 µM (inactive); in the assay on OVCAR-8, > 100 µM (inactive). The GI50 is > 100 µM (inactive) in the assay on SNB-75; > 100 µM (inactive) in the assay with SF-295; > 100 µM (inactive) in the assay on T47D; > 100 µM (inactive) with MDA-MB-435; > 100 µM (inactive) with NCI-H460; > 100 µM in the assay with HCT-15. Moreover, the GI50 with HCT-116, in the assay on UACC-62, in the assay with SK-OV-3, with NCI-H23, in the assay on MCF7 and in the assay on HOP-62 was > 100 µM (inactive) in each case.
